According to PubChem BioAssay (NCI):
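A five-concentration, 48-hour dose response in 96-well plates underlies each endpoint, interpolated linearly between surrounding concentrations. GI50 = concentration required for 50% inhibition of growth. TGI denotes the concentration required for complete inhibition of growth.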

Experiments:
Assay in all cases: inhibition of tumour cell growth, NCI panel, 48 h
DU-145 prostate = system: DU-145 prostate
NCI-H226 lung = system: NCI-H226 lung
KM12 colon = system: KM12 colon
TK-10 renal = system: TK-10 renal
SK-OV-3 ovarian = system: SK-OV-3 ovarian
HCT-116 colon = system: HCT-116 colon
HS 578T breast = system: HS 578T breast
MALME-3M melanoma = system: MALME-3M melanoma
HCC-2998 colon = system: HCC-2998 colon
HCT-15 colon = system: HCT-15 colon
M14 melanoma = system: M14 melanoma
SR leukemia = system: SR leukemia
UACC-62 melanoma = system: UACC-62 melanoma
EKVX NSCLC = system: EKVX NSCLC
CCRF-CEM leukemia = system: CCRF-CEM leukemia
HT29 colon = system: HT29 colon
NCI-H522 lung = system: NCI-H522 lung
SF-539 CNS = system: SF-539 CNS
OVCAR-8 ovarian = system: OVCAR-8 ovarian
UO-31 renal = system: UO-31 renal
OVCAR-5 ovarian = system: OVCAR-5 ovarian
786-0 renal = system: 786-0 renal
NCI/ADR-RES ovarian = system: NCI/ADR-RES ovarian
SW-620 colon = system: SW-620 colon
A498 renal = system: A498 renal
SK-MEL-2 melanoma = system: SK-MEL-2 melanoma
U251 CNS = system: U251 CNS
BT-549 breast = system: BT-549 breast
CAKI-1 renal = system: CAKI-1 renal
SK-MEL-28 melanoma = system: SK-MEL-28 melanoma
MCF7 breast = system: MCF7 breast
RXF 393 renal = system: RXF 393 renal
SF-268 CNS = system: SF-268 CNS
PC-3 prostate = system: PC-3 prostate
SNB-19 CNS = system: SNB-19 CNS
NCI-H460 lung = system: NCI-H460 lung
HL-60(TB) leukemia = system: HL-60(TB) leukemia
ACHN renal = system: ACHN renal
A549 NSCLC = system: A549 NSCLC
COLO 205 colon = system: COLO 205 colon
UACC-257 melanoma = system: UACC-257 melanoma
RPMI-8226 leukemia = system: RPMI-8226 leukemia
SK-MEL-5 melanoma = system: SK-MEL-5 melanoma
LOX IMVI melanoma = system: LOX IMVI melanoma
SN12C renal = system: SN12C renal
SNB-75 CNS = system: SNB-75 CNS
MDA-MB-435 = system: MDA-MB-435
NCI-H23 lung = system: NCI-H23 lung
OVCAR-3 ovarian = system: OVCAR-3 ovarian
HOP-92 NSCLC = system: HOP-92 NSCLC
T-47D breast = system: T-47D breast
SF-295 CNS = system: SF-295 CNS
OVCAR-4 ovarian = system: OVCAR-4 ovarian
IGROV1 ovarian = system: IGROV1 ovarian
HOP-62 NSCLC = system: HOP-62 NSCLC
MDA-MB-231 breast = system: MDA-MB-231 breast
K-562 leukemia = system: K-562 leukemia
MOLT-4 leukemia = system: MOLT-4 leukemia

## C=C(C)[C@@H]1CC[C@]2(C(=O)NCCNCCNCCN)CC[C@]3(C)[C@H](CC[C@@H]4[C@@]5(C)CC[C@H](O)C(C)(C)[C@@H]5CC[C@]43C)[C@@H]12
DU-145 prostate
  GI50: 14.1 µM
  TGI: 30.1 µM
NCI-H226 lung
  GI50: 15.5 µM
  TGI: 40.4 µM
KM12 colon
  GI50: 6.81 µM
  TGI: 26.2 µM
TK-10 renal
  GI50: 15.8 µM
  TGI: 31.3 µM
SK-OV-3 ovarian
  GI50: 17.5 µM
  TGI: 36.9 µM
HCT-116 colon
  GI50: 4.4 µM
  TGI: 18.7 µM
HS 578T breast
  GI50: 20.1 µM
  TGI: 66.7 µM
MALME-3M melanoma
  GI50: 14.6 µM
  TGI: 28.4 µM
HCC-2998 colon
  GI50: 14.1 µM
  TGI: 29.5 µM
HCT-15 colon
  GI50: 11.5 µM
  TGI: 26.1 µM
M14 melanoma
  GI50: 11 µM
  TGI: 28.7 µM
SR leukemia
  GI50: 6.76 µM
  TGI: > 100 µM
UACC-62 melanoma
  GI50: 9.29 µM
  TGI: 23 µM
EKVX NSCLC
  GI50: 10.5 µM
  TGI: 26.6 µM
CCRF-CEM leukemia
  GI50: 4.55 µM
  TGI: 78.2 µM
HT29 colon
  GI50: 14.6 µM
  TGI: 34 µM
NCI-H522 lung
  GI50: 10.3 µM
  TGI: 25.4 µM
SF-539 CNS
  GI50: 11.1 µM
  TGI: 23.7 µM
OVCAR-8 ovarian
  GI50: 18.8 µM
  TGI: 47.1 µM
UO-31 renal
  GI50: 11.7 µM
  TGI: 24.7 µM
OVCAR-5 ovarian
  GI50: 18.6 µM
  TGI: 35 µM
786-0 renal
  GI50: 12.4 µM
  TGI: 25.2 µM
NCI/ADR-RES ovarian
  GI50: 18.9 µM
  TGI: 59 µM
SW-620 colon
  GI50: 14.7 µM
  TGI: 34.4 µM
A498 renal
  GI50: 19.6 µM
  TGI: 64.7 µM
SK-MEL-2 melanoma
  GI50: 16.8 µM
  TGI: 37.3 µM
U251 CNS
  GI50: 12.7 µM
  TGI: 27.1 µM
BT-549 breast
  GI50: 15 µM
  TGI: 57.5 µM
CAKI-1 renal
  GI50: 5.92 µM
  TGI: 20.1 µM
SK-MEL-28 melanoma
  GI50: 16 µM
  TGI: 30.6 µM
MCF7 breast
  GI50: 13.2 µM
  TGI: 29.3 µM
RXF 393 renal
  GI50: 13.2 µM
  TGI: 27.2 µM
SF-268 CNS
  GI50: 13.5 µM
  TGI: 32.3 µM
PC-3 prostate
  GI50: 2.95 µM
  TGI: 18.6 µM
SNB-19 CNS
  GI50: 12.9 µM
  TGI: 28.2 µM
NCI-H460 lung
  GI50: 14.7 µM
  TGI: 32 µM
HL-60(TB) leukemia
  GI50: 7.33 µM
  TGI: 31.2 µM
ACHN renal
  GI50: 12 µM
  TGI: 27.3 µM
A549 NSCLC
  GI50: 4.97 µM
  TGI: 21.4 µM
COLO 205 colon
  GI50: 15.9 µM
  TGI: 34.6 µM
UACC-257 melanoma
  GI50: 15.1 µM
  TGI: 33.1 µM
RPMI-8226 leukemia
  GI50: 2.81 µM
  TGI: 27.6 µM
SK-MEL-5 melanoma
  GI50: 11.1 µM
  TGI: 23.4 µM
LOX IMVI melanoma
  GI50: 14.9 µM
  TGI: 28.6 µM
SN12C renal
  GI50: 13.5 µM
  TGI: 33.2 µM
SNB-75 CNS
  GI50: 11.1 µM
  TGI: 27.6 µM
MDA-MB-435
  GI50: 13.4 µM
  TGI: 27.2 µM
NCI-H23 lung
  GI50: 14.7 µM
  TGI: 32 µM
OVCAR-3 ovarian
  GI50: 12.2 µM
  TGI: 25.7 µM
HOP-92 NSCLC
  GI50: 4.61 µM
  TGI: 19.7 µM
T-47D breast
  GI50: 10.9 µM
  TGI: 32.3 µM
SF-295 CNS
  GI50: 13.8 µM
  TGI: 30.3 µM
OVCAR-4 ovarian
  GI50: 14.1 µM
  TGI: 33 µM
IGROV1 ovarian
  GI50: 16.1 µM
  TGI: 32.5 µM
HOP-62 NSCLC
  GI50: 16.5 µM
  TGI: 33.5 µM
MDA-MB-231 breast
  GI50: 15.1 µM
  TGI: 37.1 µM
K-562 leukemia
  GI50: 6.9 µM
  TGI: > 100 µM
MOLT-4 leukemia
  GI50: 11.5 µM
  TGI: > 100 µM
